The text below walks through data of patent US10758534B2 (Vertex Pharmaceuticals Incorporated, priority 2014, dated 2020).

The target of this test is T1, F508del (Homo sapiens, UniProt P13569, DEL508-508).
T1 construct: expressed in transfected cells
T1 sequence (P13569 with tags, fused parts or gaps DEL508-508): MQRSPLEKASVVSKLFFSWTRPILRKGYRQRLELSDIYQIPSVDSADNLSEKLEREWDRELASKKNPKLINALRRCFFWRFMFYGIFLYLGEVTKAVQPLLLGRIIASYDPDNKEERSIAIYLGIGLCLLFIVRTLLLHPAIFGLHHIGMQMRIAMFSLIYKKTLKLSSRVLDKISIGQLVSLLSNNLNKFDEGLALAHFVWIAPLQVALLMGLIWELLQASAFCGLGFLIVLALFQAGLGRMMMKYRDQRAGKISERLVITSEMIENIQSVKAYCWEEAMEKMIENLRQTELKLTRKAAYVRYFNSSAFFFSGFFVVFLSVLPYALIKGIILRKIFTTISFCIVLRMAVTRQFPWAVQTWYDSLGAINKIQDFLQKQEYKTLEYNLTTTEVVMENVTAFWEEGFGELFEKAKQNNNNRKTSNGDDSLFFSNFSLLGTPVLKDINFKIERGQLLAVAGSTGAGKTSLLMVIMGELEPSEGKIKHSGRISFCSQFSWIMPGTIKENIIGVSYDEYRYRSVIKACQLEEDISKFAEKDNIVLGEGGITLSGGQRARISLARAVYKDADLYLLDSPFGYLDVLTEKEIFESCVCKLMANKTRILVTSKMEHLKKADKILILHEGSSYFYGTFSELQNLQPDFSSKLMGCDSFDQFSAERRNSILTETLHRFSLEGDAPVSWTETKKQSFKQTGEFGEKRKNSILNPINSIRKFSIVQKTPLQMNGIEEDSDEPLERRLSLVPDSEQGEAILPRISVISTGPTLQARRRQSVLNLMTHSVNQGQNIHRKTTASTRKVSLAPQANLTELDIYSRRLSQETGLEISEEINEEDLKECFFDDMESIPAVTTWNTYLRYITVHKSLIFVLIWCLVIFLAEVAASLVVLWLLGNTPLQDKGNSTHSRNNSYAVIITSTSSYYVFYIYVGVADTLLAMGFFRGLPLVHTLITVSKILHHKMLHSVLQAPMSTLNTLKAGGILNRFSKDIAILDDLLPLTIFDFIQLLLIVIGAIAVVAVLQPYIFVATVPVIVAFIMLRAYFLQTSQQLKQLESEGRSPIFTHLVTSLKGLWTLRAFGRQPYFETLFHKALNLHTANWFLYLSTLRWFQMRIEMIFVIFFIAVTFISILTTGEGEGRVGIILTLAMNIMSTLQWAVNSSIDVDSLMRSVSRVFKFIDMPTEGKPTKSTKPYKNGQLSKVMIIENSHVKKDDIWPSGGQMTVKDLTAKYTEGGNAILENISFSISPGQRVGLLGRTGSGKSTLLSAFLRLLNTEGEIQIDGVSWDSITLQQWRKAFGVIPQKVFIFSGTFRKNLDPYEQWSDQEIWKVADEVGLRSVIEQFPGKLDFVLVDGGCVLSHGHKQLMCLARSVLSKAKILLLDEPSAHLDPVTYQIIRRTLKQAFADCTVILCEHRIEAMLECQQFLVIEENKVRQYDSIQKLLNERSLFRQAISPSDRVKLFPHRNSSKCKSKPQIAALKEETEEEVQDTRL
Nature of the test: Protocol 1: membrane potential optical assay (FLIPR III, voltage sensing dye), identification of potentiator compounds. The class given is cell-based. The settings on record: Table 3, compounds of Table 1. Summed up:
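NIH 3T3 fibroblasts stably expressing F508del were cultured at 27° C for 24 hrs for temperature correction, then treated with compounds or DMSO and loaded with a voltage-sensing redistribution dye. Forskolin added with a Cl⁻ gradient activated the channel; membrane-potential fluorescence on FLIPR III reported increased gating.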
On to `COc1ccc(/C=C/c2cc(C(=O)NS(=O)(=O)c3cccc(N)n3)c(N3C[C@@H](C)CC3(C)C)nc2C(C)(C)C)cc1` [Compound 1535, N-[(6-amino-2-pyridyl)sulfonyl]-6-tert-butyl-5-[(E)-2-(4-methoxyphenyl)vinyl]-2-[(4S)-2,2,4-trimethylpyrrolidin-1-yl]pyridine-3-carboxamide], for which the EC30 entry is on record as “+++ (“+++” means <3 uM)”.
For `CCn1cc(-c2ccc(C(=O)NS(=O)(=O)c3cccc(N)n3)c(Oc3c(C)cc(C)cc3C)n2)cn1` [Compound 1312, N-[(6-amino-2-pyridyl)sulfonyl]-6-(1-ethylpyrazol-4-yl)-2-(2,4,6-trimethylphenoxy)pyridine-3-carboxamide], the EC30 entry is “++ (“++” means between 3 uM and 10 uM)”.
As for `CC(C)COc1cc(F)cc(-c2ccc(C(=O)NS(=O)(=O)c3cccc(N)n3)c(OC3C[C@@H]4C[C@@H]4C3)n2)c1` (stereo partly drawn) [Compound 1077, N-[(6-amino-2-pyridyl)sulfonyl]-2-[[(1R,5S)-3-bicyclo[3.1.0]hexanyl]oxy]-6-(3-fluoro-5-isobutoxy-phenyl)pyridine-3-carboxamide], the EC30 result is recorded as “+++ (“+++” means <3 uM)”.
As for `CCOc1cccc2c1CN(Cc1c(C)cccc1F)C2(C)C(=O)NS(=O)(=O)c1cccc(N)n1` (stereo not drawn) [Compound 1392, N-[(6-amino-2-pyridyl)sulfonyl]-4-ethoxy-2-[(2-fluoro-6-methyl-phenyl)methyl]-1-methyl-isoindoline-1-carboxamide], the entry is “+++ (“+++” means <3 uM)”.
Regarding `Cc1cc(C)c(Oc2nc3c(cc2C(=O)NS(=O)(=O)c2ccc[nH]c2=O)CCCC3(C)C)c(C)c1` [Compound 899, 8,8-dimethyl-N-[(2-oxo-1H-pyridin-3-yl)sulfonyl]-2-(2,4,6-trimethylphenoxy)-6,7-dihydro-5H-quinoline-3-carboxamide], the EC30 entry is recorded as “+++ (“+++” means <3 uM)”.
As to `CC(C)COc1cc(F)cc(-c2ccc(C(=O)NS(=O)(=O)c3ccn[nH]3)c(N3CCCC(C4CC4)C3)n2)c1` (stereo not drawn) [Compound 1286, 2-(3-cyclopropyl-1-piperidyl)-6-(3-fluoro-5-isobutoxy-phenyl)-N-(1H-pyrazol-5-ylsulfonyl)pyridine-3-carboxamide], the EC30 result was “+++ (“+++” means <3 uM)”.
`Cc1cc(C)c(Oc2nc(C(C)(C)C)ccc2C(=O)NS(=O)(=O)c2cccc(NCCO)n2)c(C)c1` [Compound 916, 6-tert-butyl-N-[[6-(2-hydroxyethylamino)-2-pyridyl]sulfonyl]-2-(2,4,6-trimethylphenoxy)pyridine-3-carboxamide]: the EC30 entry was “+++ (“+++” means <3 uM)”.
As for `C[C@@H]1CC[C@H](C)N1c1nc(-c2ccc(OCC(C)(C)C)nc2)ccc1C(=O)NS(=O)(=O)c1cccc(N)n1` [Compound 1270, N-[(6-amino-2-pyridyl)sulfonyl]-6-[6-(2,2-dimethylpropoxy)-3-pyridyl]-2-[(2S,5R)-2,5-dimethylpyrrolidin-1-yl]pyridine-3-carboxamide], the entry is “+++ (“+++” means <3 uM)”; as for `CC(C)COc1cc(F)cc(-c2ccc(C(=O)NS(=O)(=O)c3cccc(N)n3)c(N3CC(C)OCC3(C)C)n2)c1` (stereo not drawn) [Compound 1548, N-[(6-amino-2-pyridyl)sulfonyl]-6-(3-fluoro-5-isobutoxy-phenyl)-2-(2,5,5-trimethylmorpholin-4-yl)pyridine-3-carboxamide], “+++ (“+++” means <3 uM)”; as for `CC(C)COc1cc(F)cc(-c2ccc(C(=O)NS(=O)(=O)c3cccc(N)n3)c(OC3(Cc4ccccc4)CCC3)n2)c1` [Compound 1479, N-[(6-amino-2-pyridyl)sulfonyl]-2-(1-benzylcyclobutoxy)-6-(3-fluoro-5-isobutoxy-phenyl)pyridine-3-carboxamide], “+++ (“+++” means <3 uM)”.
For `Cc1cc(C)c(Cn2c(C(=O)NS(=O)(=O)c3cccc(N)c3)cc3ccc(C#N)cc32)c(C)c1` [Compound 1082, N-(3-aminophenyl)sulfonyl-6-cyano-1-[(2,4,6-trimethylphenyl)methyl]indole-2-carboxamide], the EC30 result is given as “+ (“+” means greater than 10 uM)”.
With `CC1CN(c2ncccc2C(=O)NS(=O)(=O)c2cccc(Oc3ccc(F)c(Cl)c3)n2)C(C)(C)C1` (stereo not drawn) [Compound 1831, N—[[6-(3-chloro-4-fluoro-phenoxy)-2-pyridyl]sulfonyl]-2-(2,2,4-trimethylpyrrolidin-1-yl)pyridine-3-carboxamide], the EC30 result was “+++ (“+++” means <3 uM)”.
With `Cc1cc(C)c(Oc2nc(C(C)(C)C)ccc2C(=O)NS(=O)(=O)c2cccc(NCCN)n2)c(C)c1` [Compound 1054, N-[[6-(2-aminoethylamino)-2-pyridyl]sulfonyl]-6-tert-butyl-2-(2,4,6-trimethylphenoxy)pyridine-3-carboxamide], the EC30 result is reported as “+++ (“+++” means <3 uM)”.
Take `COc1ncc(-c2ccc(C(=O)NS(=O)(=O)c3nccnc3N)c(Oc3ccc(C)cc3C)n2)cc1C` [Compound 893, N-(3-aminopyrazin-2-yl)sulfonyl-2-(2,4-dimethylphenoxy)-6-(6-methoxy-5-methyl-3-pyridyl)pyridine-3-carboxamide]: the EC30 entry is listed as “+++ (“+++” means <3 uM)”.
Take `Cc1cn(-c2ccc(C(=O)NS(=O)(=O)c3cccc(N)n3)c(N3C[C@@H](C)CC3(C)C)n2)nc1OCC(C)C` [Compound 1532, N-[(6-amino-2-pyridyl)sulfonyl]-6-(3-isobutoxy-4-methyl-pyrazol-1-yl)-2-[(4S)-2,2,4-trimethylpyrrolidin-1-yl]pyridine-3-carboxamide]: the EC30 result is reported as “+++ (“+++” means <3 uM)”.
Regarding `CC(C)COc1cc(F)cc(-c2ccc(C(=O)NS(=O)(=O)c3cccc(N)n3)c(OCCCn3cccn3)n2)c1` [Compound 1692, N-[(6-amino-2-pyridyl)sulfonyl]-6-(3-fluoro-5-isobutoxy-phenyl)-2-(3-pyrazol-1-ylpropoxy)pyridine-3-carboxamide], the EC30 result is “++ (“++” means between 3 uM and 10 uM)”.
For the compound `CC(C)COc1cc(F)cc(-c2ccc(C(=O)NS(=O)(=O)N3CCC(O)C3)c(N3C[C@@H](C)CC3(C)C)n2)c1` (stereo partly drawn) [Compound 1648, 6-(3-fluoro-5-isobutoxy-phenyl)-N-(3-hydroxypyrrolidin-1-yl)sulfonyl-2-[(4S)-2,2,4-trimethylpyrrolidin-1-yl]pyridine-3-carboxamide], the EC30 result is reported as “+++ (“+++” means <3 uM)”.
On to `Cc1cccc(C)c1Oc1nc(-c2cc(F)cc(OCC(C)CO)c2)ccc1C(=O)NS(=O)(=O)c1cccc(N)n1` (stereo not drawn) [Compound 1797, N-[(6-amino-2-pyridyl)sulfonyl]-2-(2,6-dimethylphenoxy)-6-[3-fluoro-5-(3-hydroxy-2-methyl-propoxy)phenyl]pyridine-3-carboxamide], for which the EC30 entry is “+++ (“+++” means <3 uM)”.
Regarding `CCOC1CCCN(c2nc(-c3cc(F)cc(OCC(C)C)c3)ccc2C(=O)NS(=O)(=O)c2ccn[nH]2)C1` (stereo not drawn) [Compound 843, 2-(3-ethoxy-1-piperidyl)-6-(3-fluoro-5-isobutoxy-phenyl)-N-(1H-pyrazol-5-ylsulfonyl)pyridine-3-carboxamide], the EC30 result was “++ (“++” means between 3 uM and 10 uM)”.
Regarding `CC(=O)Nc1cccc(S(=O)(=O)NC(=O)c2ccc(-c3cc(F)cc(OCC(C)C)c3)nc2N2C[C@@H](C)CC2(C)C)n1` [Compound 1652, N-[(6-acetamido-2-pyridyl)sulfonyl]-6-(3-fluoro-5-isobutoxy-phenyl)-2-[(4S)-2,2,4-trimethylpyrrolidin-1-yl]pyridine-3-carboxamide], the EC30 result is listed as “+++ (“+++” means <3 uM)”.
As for `COc1cc(-c2ccc(C(=O)NS(=O)(=O)c3cccc(N)n3)c(Oc3c(C)cc(C)cc3C)n2)ccc1C#N` [Compound 923, N-[(6-amino-2-pyridyl)sulfonyl]-6-(4-cyano-3-methoxy-phenyl)-2-(2,4,6-trimethylphenoxy)pyridine-3-carboxamide], the entry is “+++ (“+++” means <3 uM)”.
Consider `CC(C)(C)c1ccc(C(=O)NS(=O)(=O)c2ccc(N)cc2)c(C2=CCCCC2)n1` [Compound 880, N-(4-aminophenyl)sulfonyl-6-tert-butyl-2-(cyclohexen-1-yl)pyridine-3-carboxamide], for which the EC30 result is “++ (“++” means between 3 uM and 10 uM)”.
For `CC1CN(c2ncccc2C(=O)NS(=O)(=O)c2cccc(Nc3ccccc3Cl)n2)C(C)(C)C1` (stereo not drawn) [Compound 1872, N—[[6-(2-chloroanilino)-2-pyridyl]sulfonyl]-2-(2,2,4-trimethylpyrrolidin-1-yl)pyridine-3-carboxamide], the EC30 entry was “+++ (“+++” means <3 uM)”.
`CC(C)COc1cc(F)cc(-c2ccc(C(=O)NS(=O)(=O)c3cccc(N)n3)c(OCCCCc3ccccn3)n2)c1` [Compound 1688, N-[(6-amino-2-pyridyl)sulfonyl]-6-(3-fluoro-5-isobutoxy-phenyl)-2-[4-(2-pyridyl)butoxy]pyridine-3-carboxamide]: the EC30 result is “+++ (“+++” means <3 uM)”.
Consider `C[C@@H]1CN(c2nc(C3CC4CCC3C4)ccc2C(=O)NS(=O)(=O)c2cccc(N)n2)C(C)(C)C1` (stereo partly drawn) [Compound 1378, NV [(6-amino-2-pyridyl)sulfonyl]-6-norbornan-2-yl-2-[(4S)-2,2,4-trimethylpyrrolidin-1-yl]pyridine-3-carboxamide], for which the EC30 result is “+++ (“+++” means <3 uM)”.
As for `CC(C)COc1cc(F)cc(-c2ccc(C(=O)NS(=O)(=O)c3ccn[nH]3)c(N3C(C)CC(c4ccccc4)C3C)n2)c1` (stereo not drawn) [Compound 1348, 2-(2,5-dimethyl-3-phenyl-pyrrolidin-1-yl)-6-(3-fluoro-5-isobutoxy-phenyl)-N-(1H-pyrazol-5-ylsulfonyl)pyridine-3-carboxamide], the EC30 result is “+++ (“+++” means <3 uM)”.
Consider `CC1CCN(c2nc(-c3cc(F)cc(OC(C)C)c3)ccc2C(=O)NS(=O)(=O)c2cc[nH]n2)CC1` [Compound 1042, 6-(3-fluoro-5-isopropoxy-phenyl)-2-(4-methyl-1-piperidyl)-N-(1H-pyrazol-3-ylsulfonyl)pyridine-3-carboxamide], for which the EC30 result is recorded as “+++ (“+++” means <3 uM)”.
